The values that follow are results of earlier work, collected in PMC3907537, “Evaluation of the Endothelin Receptor Antagonists Ambrisentan, Bosentan, Macitentan, and Sitaxsentan as Hepatobiliary Transporter Inhibitors and Substrates in Sandwich-Cultured Human Hepatocytes” (PLoS ONE, 2014).

The structures appear in SMILES notation. Values joined by “and” are separate entries in the source; they are usually repeats but may differ in a detail not shown here. Equal entries are not always repeated. Where two headings read alike, the source gives them in different places.

One may read the IC50 as the concentration that gives 50% inhibition.

The subject of one data set is canine BCRP. Also on record: method as in PMID 23353592. Particulars: cited from earlier work.
The subject of a further data set is human OATP1B1. The settings on record: cited from earlier work.
The next data set concerns the target T1, OATP1B3 (Homo sapiens, UniProt Q9NPD5).
T1 construct: host or cells: CHO
T1 sequence (Q9NPD5 1-702): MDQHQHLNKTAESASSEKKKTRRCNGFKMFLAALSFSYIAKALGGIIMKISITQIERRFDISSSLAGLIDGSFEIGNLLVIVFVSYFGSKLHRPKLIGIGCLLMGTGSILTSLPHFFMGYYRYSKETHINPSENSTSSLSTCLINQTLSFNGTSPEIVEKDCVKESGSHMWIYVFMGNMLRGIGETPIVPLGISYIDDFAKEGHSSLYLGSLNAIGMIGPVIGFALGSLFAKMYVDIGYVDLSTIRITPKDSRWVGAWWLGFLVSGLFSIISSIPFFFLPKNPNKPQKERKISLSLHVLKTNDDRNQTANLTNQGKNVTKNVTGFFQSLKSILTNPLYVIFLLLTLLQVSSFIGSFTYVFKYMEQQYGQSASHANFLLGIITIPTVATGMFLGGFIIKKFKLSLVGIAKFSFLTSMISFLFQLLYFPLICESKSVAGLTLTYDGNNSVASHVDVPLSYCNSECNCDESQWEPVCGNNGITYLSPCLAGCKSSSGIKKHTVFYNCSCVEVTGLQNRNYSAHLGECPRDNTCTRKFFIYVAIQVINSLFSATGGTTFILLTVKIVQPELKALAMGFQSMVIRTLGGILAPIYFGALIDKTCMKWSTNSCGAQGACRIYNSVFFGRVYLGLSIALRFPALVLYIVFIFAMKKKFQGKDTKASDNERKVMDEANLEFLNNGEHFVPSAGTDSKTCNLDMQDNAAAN
The settings on record: cited from earlier work.

Another data set deals with human Pgp. The arrangement: method as in PMID 22348175. The settings on record: at doses up to 50 µM, Kim et al. ref 46; cited from earlier work.
Details of data set [1]: method as in PMID 22189899. The settings on record: plasma pharmacokinetics in patients ref 36; cited from earlier work.
For data set [2] the following is noted: cited from earlier work.
The next data set deals with T2, BCRP (Homo sapiens, UniProt Q9UNQ0).
T2 construct: host or cells: MDCKII
T2 sequence (Q9UNQ0 1-655): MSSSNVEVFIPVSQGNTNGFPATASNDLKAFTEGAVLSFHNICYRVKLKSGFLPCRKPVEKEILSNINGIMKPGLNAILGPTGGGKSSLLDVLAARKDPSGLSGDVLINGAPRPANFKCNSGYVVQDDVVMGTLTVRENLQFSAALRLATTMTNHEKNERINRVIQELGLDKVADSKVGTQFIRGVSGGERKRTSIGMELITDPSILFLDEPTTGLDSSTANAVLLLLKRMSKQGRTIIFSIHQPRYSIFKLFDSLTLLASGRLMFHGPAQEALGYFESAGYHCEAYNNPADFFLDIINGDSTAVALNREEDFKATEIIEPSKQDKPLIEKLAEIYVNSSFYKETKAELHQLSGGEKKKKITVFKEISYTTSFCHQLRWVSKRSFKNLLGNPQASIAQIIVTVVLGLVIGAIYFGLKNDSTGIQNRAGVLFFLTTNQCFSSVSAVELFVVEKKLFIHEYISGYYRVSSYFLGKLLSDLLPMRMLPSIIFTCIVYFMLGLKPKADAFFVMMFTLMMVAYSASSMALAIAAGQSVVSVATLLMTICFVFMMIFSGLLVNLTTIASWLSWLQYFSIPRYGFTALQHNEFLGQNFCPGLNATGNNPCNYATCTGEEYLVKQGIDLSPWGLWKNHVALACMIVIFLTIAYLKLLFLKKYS
The arrangement: method as in earlier work. The settings on record: data previously reported, similar conditions ref 35; cited from earlier work.

The target in the next data set is T3, MRP2 (Homo sapiens, UniProt Q92887).
T3 construct: purchased Solvo Biotechnology, Budaors, Hungary; host or cells: Sf9 insect cells (membrane vesicles)
Also on record: method as in earlier work. Particulars: data previously reported ref 35; cited from earlier work.

T3 sequence (Q92887 whole entry): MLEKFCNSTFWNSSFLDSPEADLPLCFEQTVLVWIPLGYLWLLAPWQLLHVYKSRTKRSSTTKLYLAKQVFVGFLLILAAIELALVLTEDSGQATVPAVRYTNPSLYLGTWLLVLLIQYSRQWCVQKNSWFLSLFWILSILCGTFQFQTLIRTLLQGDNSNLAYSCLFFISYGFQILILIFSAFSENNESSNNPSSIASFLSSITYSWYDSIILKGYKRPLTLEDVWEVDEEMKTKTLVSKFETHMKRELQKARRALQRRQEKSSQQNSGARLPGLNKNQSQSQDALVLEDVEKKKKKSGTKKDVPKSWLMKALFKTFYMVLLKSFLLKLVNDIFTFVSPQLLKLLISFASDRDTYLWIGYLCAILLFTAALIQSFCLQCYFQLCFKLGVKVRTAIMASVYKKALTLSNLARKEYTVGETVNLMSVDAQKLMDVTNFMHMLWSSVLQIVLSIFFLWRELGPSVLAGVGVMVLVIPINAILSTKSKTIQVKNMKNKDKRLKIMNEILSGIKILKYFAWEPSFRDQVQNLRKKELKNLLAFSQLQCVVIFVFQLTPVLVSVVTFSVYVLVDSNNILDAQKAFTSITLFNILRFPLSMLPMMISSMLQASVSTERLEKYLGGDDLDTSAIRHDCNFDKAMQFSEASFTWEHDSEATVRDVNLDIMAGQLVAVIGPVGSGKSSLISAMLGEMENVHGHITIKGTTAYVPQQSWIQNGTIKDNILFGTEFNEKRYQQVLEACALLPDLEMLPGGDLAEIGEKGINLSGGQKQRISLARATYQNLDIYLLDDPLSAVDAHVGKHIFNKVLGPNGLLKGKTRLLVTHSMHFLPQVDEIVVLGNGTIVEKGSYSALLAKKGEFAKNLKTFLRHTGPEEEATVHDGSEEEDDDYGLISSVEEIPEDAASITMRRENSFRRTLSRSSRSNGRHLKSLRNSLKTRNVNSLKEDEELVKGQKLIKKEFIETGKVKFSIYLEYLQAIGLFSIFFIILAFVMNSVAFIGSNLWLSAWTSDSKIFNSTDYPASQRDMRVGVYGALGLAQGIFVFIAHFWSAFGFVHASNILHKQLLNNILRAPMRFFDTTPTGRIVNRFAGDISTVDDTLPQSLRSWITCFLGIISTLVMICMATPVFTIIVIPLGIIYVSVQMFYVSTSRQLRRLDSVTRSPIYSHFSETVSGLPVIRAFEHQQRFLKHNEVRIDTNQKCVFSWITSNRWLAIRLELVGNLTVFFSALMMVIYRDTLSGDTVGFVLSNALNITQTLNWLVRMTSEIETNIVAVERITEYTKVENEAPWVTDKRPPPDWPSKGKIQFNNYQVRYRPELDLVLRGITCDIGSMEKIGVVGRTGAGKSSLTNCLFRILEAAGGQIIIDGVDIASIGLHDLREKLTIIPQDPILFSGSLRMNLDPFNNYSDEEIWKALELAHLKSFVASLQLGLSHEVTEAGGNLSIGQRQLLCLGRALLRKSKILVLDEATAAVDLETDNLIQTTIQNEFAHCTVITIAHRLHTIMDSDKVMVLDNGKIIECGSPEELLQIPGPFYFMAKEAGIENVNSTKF

On to `CCCNS(=O)(=O)Nc1ncnc(OCCOc2ncc(Br)cn2)c1-c1ccc(Br)cc1` [macitentan], for which the IC50 with canine BCRP was 13.2 µM and 13 µM; in the data set on human OATP1B1 (Bruderer et al. ref 36, read-out: OATP1B1 IC50), 6.3 µM; in the data set with human OATP1B1 (read-out: human OATP1B1 IC50) it was 4.4 µM; at OATP1B3 (Bruderer et al. ref 36), 11.8 µM; on OATP1B3 it was 10 µM. Besides, the “inhibition of human Pgp” value in the data set with human Pgp is given as “no inhibition”. Moreover, in data set [1], the “increase in macitentan exposure on coadministration with cyclosporin A” value is given as 10%. For the same compound, in data set [1], the “increase in macitentan trough concentration on coadministration with cyclosporin A” value is reported as 38%. In data set [2] (SERAPHIN ref 19), the “elevations >8X ULN on macitentan compared to placebo” value was roughly 5 fold. In data set [2] (SERAPHIN, PAH patients, up to 103.9 weeks, placebo 4.5% ref 17, 19), the “incidence of serum aminotransferase elevations >3X ULN” value was 3.4%. The “incidence of aminotransferase elevations >8X ULN” value in data set [2] (SERAPHIN, placebo 0.4% ref 19) is reported as 2.1%.

Turning to `Cc1cc2c(cc1CC(=O)c1sccc1S(=O)(=O)Nc1onc(C)c1Cl)OCO2` [sitaxsentan], the IC50 at BCRP and on MRP2 was greater than 100 µM each time.
